Reference: article PMC6874530, “Structural analysis identifies an escape route from the adverse lipogenic effects of liver X receptor ligands” (Communications Biology, 2019)

Assays:
LXRα = target: T1, LXRα (Homo sapiens, UniProt Q13133); experiment: Gal4 one hybrid reporter gene (transactivation) assay in U2OS cells, LXRα; assay type: cell-based
T1 construct: expression vectors pSG5-Gal4-LXRα LBD or pSG5-Gal4-LXRβ LBD; expressed in transfected cells; host or cells: U2OS osteosarcoma cells
T1 sequence (Q13133 209-447 limits assumed): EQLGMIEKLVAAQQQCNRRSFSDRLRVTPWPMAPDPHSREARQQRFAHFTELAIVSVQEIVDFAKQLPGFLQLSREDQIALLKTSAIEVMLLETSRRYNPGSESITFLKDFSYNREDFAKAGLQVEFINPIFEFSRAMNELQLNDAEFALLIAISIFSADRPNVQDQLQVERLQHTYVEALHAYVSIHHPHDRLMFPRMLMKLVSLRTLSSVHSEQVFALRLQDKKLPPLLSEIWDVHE
Experimental: (§1) Transactivation assays were performed in U2OS osteosarcoma cells (ATCC, USA). […] Ligands were added at ten different concentrations 2 h post transfection and the luciferase activity was measured after 40 h.

LXRβ = target: T2, LXRβ (Homo sapiens, UniProt P55055); experiment: Gal4 one hybrid reporter gene (transactivation) assay in U2OS cells, LXRβ; assay type: cell-based
T2 construct: expression vectors pSG5-Gal4-LXRα LBD or pSG5-Gal4-LXRβ LBD; expressed in transfected cells; host or cells: U2OS osteosarcoma cells
T2 sequence (P55055 222-460 limits assumed): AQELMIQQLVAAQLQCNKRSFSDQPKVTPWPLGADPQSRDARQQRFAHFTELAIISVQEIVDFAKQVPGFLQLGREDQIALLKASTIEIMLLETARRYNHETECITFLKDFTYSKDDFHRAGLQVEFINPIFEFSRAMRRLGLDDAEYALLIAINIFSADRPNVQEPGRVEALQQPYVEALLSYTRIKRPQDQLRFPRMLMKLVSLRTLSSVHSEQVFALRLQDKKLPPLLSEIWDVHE
Experimental: as §1

LXRβ/SRC1 = target: T3, LXRβ/SRC1 (Homo sapiens, UniProt P55055); experiment: SPR cofactor recruitment, LXRβ LBD binding to immobilized SRC1 coactivator peptide
T3 construct: human his-tagged LXRβ LBD (216-461); His tag; made in house; host or cells: Escherichia coli BL21(DE3)
T3 sequence (P55055 215-460 limits assumed): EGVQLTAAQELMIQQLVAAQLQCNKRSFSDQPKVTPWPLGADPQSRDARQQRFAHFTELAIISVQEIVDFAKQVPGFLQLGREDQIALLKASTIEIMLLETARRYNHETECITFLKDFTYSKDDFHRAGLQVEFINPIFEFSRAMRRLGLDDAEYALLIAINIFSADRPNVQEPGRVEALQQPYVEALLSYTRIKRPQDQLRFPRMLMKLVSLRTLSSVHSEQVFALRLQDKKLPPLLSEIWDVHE
T3 sequence (Q15788 with tags, fused parts or gaps partner limits assumed): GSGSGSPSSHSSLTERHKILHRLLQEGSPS
Experimental: The peptides carried an N-terminal biotin for surface immobilization on a Xantec NID200M Sensor Chip (NTA-derivatized carboxymethyldextran hydrogel, XanTec bioanalytics GmbH) preloaded with Ni^2+. […] LXRα and LXRβ LBD proteins were serially diluted in SPR running buffer (10 mM HEPES, 150 mM NaCl, and 0.05% Tween 20, pH 7.4) to a broad range of concentrations (0.02–10 µM) and equilibrated with tested compound (50 μM) prior to the sample injection over a modified biosensor surface. LXR-ligand complexes were injected in quick succession for 120 s over immobilized cofactor peptides and reference surfaces along with blank samples followed by 900 s of dissociation. The binding level at equilibrium was monitored for all samples, including the reference sample that contained DMSO at equal amount as tested compounds. All data were normalized to this reference sample in order to quantify the effects on peptide binding without bias by receptor instability. The surface was regenerated with 0.5% (w/v) SDS after each injection. Binding responses in the steady-state region of the sensorgrams were plotted against LXR LBD concentration to determine the overall equilibrium-binding affinity by fitting the data to nonlinear regression (Prism 8; GraphPad).

LXRα LBD [1] = target: T4, LXRα LBD (Homo sapiens, UniProt Q13133); experiment: biochemical; details: Receptor-binding affinity pKi LXRα, value (SD, n independent experiments)
T4 sequence (Q13133 200-447): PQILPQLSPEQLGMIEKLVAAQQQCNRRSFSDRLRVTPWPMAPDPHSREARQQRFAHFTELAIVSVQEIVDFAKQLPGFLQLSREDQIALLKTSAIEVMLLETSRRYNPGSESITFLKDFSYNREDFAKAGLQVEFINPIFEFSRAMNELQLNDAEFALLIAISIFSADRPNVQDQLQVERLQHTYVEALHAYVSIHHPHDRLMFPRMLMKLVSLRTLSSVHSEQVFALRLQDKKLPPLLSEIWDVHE
Excerpt: (§5) The compounds were run in triplicate (binding assay) or in quadruplicate (transactivation assay). Standard deviations are indicated for individual experiments run more than once.

LXRβ LBD [2] = target: T5, LXRβ LBD (Homo sapiens, UniProt P55055); experiment: biochemical; details: Receptor-binding affinity pKi LXRβ, value (SD, n independent experiments)
T5 sequence (P55055 215-460 limits assumed): T3 sequence (P55055 215-460 limits assumed)
Excerpt: as §5

LXRα LBD [3] = target: T4, LXRα LBD; experiment: differential HDX-MS of LXRα LBD (apo vs ligand-bound); design: Human his-tagged LXRα LBD (200-447); His tag; made in house; host or cells: Escherichia coli BL21(DE3); details: HDX-MS
Experimental: (§2) Prior to the deuterium incorporation experiments, 10 µM apo LXR was incubated with 10× excess of ligand or equal volume of DMSO for 30 min at room temperature. In the experiments with cofactors, 15× excess of the SRC1 coactivator peptide and the NCOR1 corepressor peptide were added to the ligand-bound or apo proteins, respectively, and incubated for 30 min at room temperature. […] A fully deuterated sample was generated by incubating protein with 4 M guanidine-HCl in D2O for 30 min at 45 °C. Exchange reactions were performed with a CTC PAL sample handling robot (LEAP Technologies). Labeling times were 30, 60, 180, 600, and 1800 s in the kinetics experiments. Differential HDX of a complete compound selection was measured after 30 and 600 s of labeling time points. Reactions were conducted by incubating 4 µl of LXR with 50 µl of D2O buffer (containing 25 mM Tris-HCl (pD 7.6), 50 mM NaCl, 10% glycerol, and 1 mM TCEP). The exchange reaction was stopped by the addition of 50 µl of quench solution (3 M urea, 0.1% TFA) followed by immediate injection into a Enzymate BEH Pepsin 2.1 × 30 mm Column (Waters, UK) for protein digestion (2 min at 24 °C). Peptic digest was further injected on a Waters nanoACQUITY UPLC System where peptides were first desalted by trapping for 3 min on a VanGuard Pre-Column Acquity UPLC BEH C18 (1.7 μm; 2.1 × 5 mm), and then eluted over a 6-min 5–40% (vol/vol) acetonitrile (containing 0.1% formic acid) gradient into a Waters Synapt G2-Si mass spectrometer. Peptide separation was conducted at 0.1 °C. All exchange reactions were performed in triplicates.
(§3) Peptides from three samples of non-deuterated LXR were identified by using the ProteinLynx Global Server (PLGS Waters, UK). Peptides with an intensity of over 5000, a mass error < 5 ppm, and present in at least two of the three data acquisitions were pooled and imported into the DynamX data analysis software (Waters, UK). After a first round of automated spectral processing by using DynamX, each peptide was inspected manually for suitability for further analysis.
(§4) For pairwise comparison, MEMHDX software was used to identify statistically significant changes of deuterium uptake. For all peptides, a value of relative exchange per amino acid was corrected to back exchange. The mean deuteration level per amino acid was calculated by using Matlab (Mathworks)[69] and subsequently mapped onto the crystal structures with PyMOL (Schrodinger LLC). For structural representation, loop modeling with MOE (Chemical Computing Group Inc.) was applied on 2ACL.pdb file for LXRα LBD, and 1PQC.pdb for LXRβ LBD.

LXRβ LBD [4] = target: T5, LXRβ LBD; experiment: differential HDX-MS of LXRβ LBD (apo vs ligand-bound); design: human his-tagged LXRβ LBD (216-461); His tag; made in house; host or cells: Escherichia coli BL21(DE3); details: after 30 s of deuterium exchange
Experimental: as §2, §3, §4

Compound: C[C@H](CC[C@@H]1OC1(C)C)[C@H]1CC[C@H]2[C@@H]3CC=C4C[C@@H](O)CC[C@]4(C)[C@H]3CC[C@]12C [24,25EC, 24(S),25-epoxycholesterol, reference compound]
- agonist activity in the Gal4 reporter gene assay, LXRα (LXRα): No signal was observed
- EC50 (LXRα; U2OS cells, Gal4-LXRα LBD, value (SD, n), read-out: LXRα transactivation pEC50 (converted)): > 50.1 µM
- agonist activity in the Gal4 reporter gene assay, LXRβ (LXRβ): No signal was observed
- EC50 (LXRβ; LXRβ transactivation pEC50, U2OS cells, Gal4-LXRβ LBD, value (SD, n)): > 50.1 µM
- Kd (LXRβ/SRC1): 2500 nM
- Ki (LXRα LBD [1]): 275 nM
- Ki (LXRβ LBD [2]): 132 nM
- stabilization of LXRα H12 (LXRα LBD [3]): did not stabilize LXRα H12
- protection of LXRβ H11–H12 from deuterium exchange (LXRβ LBD [4]): 10%
